The values below come from patent US20240384250A1, “FIBROBLAST GROWTH FACTOR 23 MODULATING COMPOUNDS” (THE UAB RESEARCH FOUNDATION, priority 2021, published 2024).

One experiment deals with T1, FGFR4 (Homo sapiens, UniProt P22455).
T1 construct: Fc-FGFR4 protein (human ectodomain) was immobilized; purchased R&D Systems 685FR050
Briefly: Surface plasmon resonance, heparin immobilized on chip. Format: binding. The settings on record: SPR. As to the method: (§1) For the direct quantitative analysis of label-free molecular interactions in real time, surface plasmon resonance studies were conducted using BIAcore T200 and T200 evaluation software (28975001, Cytiva). Sensor SA (BR100398) and CMS chips (BR100399) were from Cytiva. For the preparation of heparin chips, heparin (2 mg) and amine-PEG3-Biotin (2 mg, 21347, Pierce) were dissolved in 200 μl of H2O and 10 mg of NaCNBH3 was added. The reaction mixture was heated at 70° C. for 24 hours; an additional 10 mg of NaCNBH3 was added; and the reaction was heated at 70° C. for another 24 hours. After cooling to room temperature, the mixture was desalted with the spin column (3000 MWCO). Biotinylated heparin was collected, freeze dried, and used for chip preparation. Biotinylated heparin was immobilized to streptavidin chips according to the manufacturer's protocol. In brief, 20 μl of biotinylated heparin solution (0.1 mg/ml) in HBS-P running buffer (0.01 M N-2-hydroxyethylpiperazine-N′-2-ethanesulfonic acid, 0.15 M NaCl, 0.005% surfactant P20 [pH7.4]; BR100368, Cytiva) was injected over flow cell 2 of the streptavidin chip at a flow rate of 10 μl/min. The successful immobilization of heparin was confirmed by the observation of an approximately 200-resonance unit increase in the sensor chip. The control flow cell (flow cell 1) was prepared by 1-minute injection with saturated biotin. For the preparation of FGFR4 chips, Fc-FGFR4 protein (human ectodomain) was immobilized on research grade CMS chips according to the standard amine coupling protocol. Briefly, carboxymethyl groups on the CMS chip surface were first activated using an injection pulse of […] of an equimolar mix of N-ethyl-N-(dimethylaminopropyl) carbodiimide and N-hydroxysuccinimide (final concentration 0.05 M, mixed immediately before injection). After activation, FGFR4 was diluted to […] in 100 mM sodium acetate (pH 5.5) buffer and injected over the activated biosensor surface. Excess unreacted sites on the sensor surface were deactivated with a 35 μl injection of 1 M ethanolamine. A reference flow cell was prepared using an injection pulse of […] of an equimolar mix of N-ethyl-N-(dimethylaminopropyl) carbodiimide and N-hydroxysuccinimide (final concentration 0.05 M, mixed immediately before injection) followed by a 35 μl injection of 1 M ethanolamine. For the measurement of interactions between FGF23 (human protein), FGFR4 (human ectodomain protein), klotho (human ectodomain, self-made; see above), and heparin, samples were diluted in HBS-P buffer. Different dilutions of protein were injected at a flow rate of 30 μl/min with HBS-P buffer as running buffer. At the end of the sample injection, HBS-P buffer was flowed over the sensor surface to facilitate dissociation. After a 3-minute dissociation time, the sensor surface was regenerated by injecting with 30 μl of 2 M NaCl to get a fully regenerated surface. The response was monitored as a function of time (sensorgram) at 25° C.
In general terms: In SPR one partner is held on a chip, and binding of the other changes the refractive index at the surface.

The next experiment concerns the target T2, klotho (Homo sapiens, UniProt Q9UEF7).
T2 construct: The sKL recombinant protein produced is mouse aa 35-982 and human aa 34-981; made in house; host or cells: Expi293 (HEK293) cells, stably transfected
T2 sequence (Q9UEF7 34-981): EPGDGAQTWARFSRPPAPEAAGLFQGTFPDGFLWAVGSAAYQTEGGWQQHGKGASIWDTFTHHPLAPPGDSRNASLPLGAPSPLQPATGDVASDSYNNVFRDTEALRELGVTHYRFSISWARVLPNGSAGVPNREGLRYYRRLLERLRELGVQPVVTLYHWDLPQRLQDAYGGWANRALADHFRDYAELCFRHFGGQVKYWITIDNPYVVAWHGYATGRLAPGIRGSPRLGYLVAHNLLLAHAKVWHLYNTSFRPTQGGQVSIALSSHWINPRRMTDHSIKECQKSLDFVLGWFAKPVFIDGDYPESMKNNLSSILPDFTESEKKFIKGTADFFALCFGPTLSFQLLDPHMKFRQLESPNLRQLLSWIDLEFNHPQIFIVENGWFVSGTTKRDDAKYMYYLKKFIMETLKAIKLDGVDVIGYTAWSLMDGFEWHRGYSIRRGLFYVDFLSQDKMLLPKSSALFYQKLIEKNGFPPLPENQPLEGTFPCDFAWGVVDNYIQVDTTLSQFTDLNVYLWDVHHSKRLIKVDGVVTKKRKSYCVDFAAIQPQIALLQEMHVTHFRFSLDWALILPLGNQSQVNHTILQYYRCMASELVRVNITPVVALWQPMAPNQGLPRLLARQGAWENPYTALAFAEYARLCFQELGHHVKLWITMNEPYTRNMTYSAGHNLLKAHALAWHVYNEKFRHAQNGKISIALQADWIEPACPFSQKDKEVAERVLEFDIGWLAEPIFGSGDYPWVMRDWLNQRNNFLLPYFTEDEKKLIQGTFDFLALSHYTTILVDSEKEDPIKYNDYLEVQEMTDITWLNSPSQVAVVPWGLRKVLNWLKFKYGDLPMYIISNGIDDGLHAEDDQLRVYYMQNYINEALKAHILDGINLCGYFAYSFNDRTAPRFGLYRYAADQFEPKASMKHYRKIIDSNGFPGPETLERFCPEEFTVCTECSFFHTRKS
The description is as above. The settings on record: SPR. Format: binding. As to the method: as §1

T1 sequence (P22455 22-369 limits assumed): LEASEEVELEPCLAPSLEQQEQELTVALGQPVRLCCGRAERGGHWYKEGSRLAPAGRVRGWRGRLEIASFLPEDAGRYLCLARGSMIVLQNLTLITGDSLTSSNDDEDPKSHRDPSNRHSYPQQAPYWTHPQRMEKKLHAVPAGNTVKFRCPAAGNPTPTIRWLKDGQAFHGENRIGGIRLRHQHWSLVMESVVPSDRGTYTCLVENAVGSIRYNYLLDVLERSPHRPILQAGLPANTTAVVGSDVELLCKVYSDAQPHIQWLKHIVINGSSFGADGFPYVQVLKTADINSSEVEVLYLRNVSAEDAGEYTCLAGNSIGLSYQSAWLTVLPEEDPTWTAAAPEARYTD

On to heparin [reference compound], for which the values for the ka at FGFR4 (25° C.) and on klotho (25° C.) were 1.2 × 10^6 1/MS and 8.0 × 10^4 1/MS, respectively. Besides, the Kd amounted to 2.8 nM at FGFR4 (read-out: dissociation constant KD) and 15 nM on klotho. Also, the kd at klotho (25° C.) is 1.1 × 10^−3 1/S.

As usually defined, the Kd is the concentration at which binding is half-saturated.
